How the values were obtained:
globular somatic embryos = test: Somatic embryo maturation (two-step maturation procedure); type: cell-based, Acacia mangium; conditions: ½ MS maturation media
Protocol: (§1) All media were adjusted to pH 5.8 after autoclaving at 121° C. for 25 min. Plant growth regulators tested in experiments were added into media after autoclaving but other additional substances were added into media before autoclaving. All cultures were maintained under the warm white fluorescent lights at a range of irradiance of 23.41-26.01 μmol.s^−1m^−2, with 16 h photoperiod and at 28° C.
Globular embryos (FIGS. 1B-C) induced from induction medium containing IAA 0.25 mg/l and TDZ 2.0 mg/l (AM-304) were cultured on ½ MS basal medium supplemented with 0-5.0 mg/l of GA3, 30-50 g/l of sucrose, Vc 100 mg/l, Asn 150 mg/l, CH 100 mg/l, Gln 150 mg/l, Pro 150 mg/l, phytagel 0.35% (g/l), and activated charcoal 0.1% for thirty days. Somatic embryos were then transferred onto maturation medium AM-425 and cultured for 40 days. Cotyledon somatic embryos (mature somatic embryos) were then transferred onto the medium AM-424 for germination. Each experiment was repeated twice with a total of 250 globular somatic embryos for each medium combination. Seedlings were transferred to ½ MS basal medium containing sucrose 20 g/l as well as phytagel 0.35% and cultured for two months before being transferred to pot soil consisting of peat soil: sand (3:1). […]

[1] = test system: A. mangium immature embryo axes; test: Embryogenic callus induction from immature embryo axes; type: cell-based, Acacia mangium; conditions: immature embryo axes on MS basal medium
Protocol: One and half months old immature green pods were collected from twenty-meter high adult A. mangium Willd. trees at Science Park Drive of Singapore. Green seeds were gently isolated from pods and washed with sterile double deionized water (ddH2O) 4-5 times. After green seeds were surface sterilised with 30% market clorox bleach (NaClO) for 5 minutes and washed with sterile ddH2O 5 times, the seeds were sterilised again with 0.1% HgCl2 for 6 minutes and washed with sterile ddH2O 5 times. Seed coats were removed with sterilised forceps and embryos were isolated. Embryo axes (EA) (FIG. 1A) were gently separated with sterile forceps and used as explants for embryogenic callus induction.
as §1, with “28° C. […]” for “28° C.”

SMILES	development of globular somatic embryos to torpedo and cotyledon stage (result in words) (globular somatic embryos)	embryogenic callus induction / somatic embryogenesis (result in words) [1]
C=C1C[C@]23C[C@@]1(O)CC[C@H]2[C@@]12C=C[C@H](O)[C@@](C)(C(=O)O1)[C@H]2[C@@H]3C(=O)O [GA3, Gibberellic Acid]	promoted somatic embryo maturation	
O=C(Nc1ccccc1)Nc1cnns1 [TDZ, 1-Phenyl-3-(1,2,3-thiadiazol-5-yl)Urea]		effective to induce embryogenic callus

Reference: patent US6673608B1, “Somatic embryogenic regeneration of Acacia mangium” (Institute of Molecular Agrobiology, priority 2002, dated 2004)
